Assay results: US9695155B2, “Herbicidal substituted pyrimidinyloxy benzene compounds” (E. I. DU PONT DE NEMOURS AND COMPANY, priority 2013, dated 2017)

Legend:
chickweed = test: Test C postemergence; type: in vivo, Stellaria media
How it was run: (§1)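 Visual injury score versus untreated controls, 0 = no effect, 100 = complete control, taken 13 to 15 days after treatment in the greenhouse. Pre-emergence pots held loam/sand; post-emergence plants grew in sphagnum peat/vermiculite mix and were sprayed at the 1- to 4-leaf stage.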

corn = test: Test A preemergence; type: in vivo, Zea mays
How it was run: (§2)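 Pre- and postemergence greenhouse screen. Soil: loam + sand. Spray carrier: solvent mixture, non-phytotoxic, with surfactant. Post timing at 1–2 leaves, height 2–10 cm. Readout: visual injury on a 0–100 scale roughly 10 days after application, untreated plants as reference.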

giant foxtail = test: Test A preemergence; type: in vivo, Setaria faberii; conditions: for Foxtail, Giant plant response rating: 500 g ai/ha
How it was run: as §2

wheat = test: Test A preemergence; type: in vivo, Triticum aestivum
How it was run: as §2

velvetleaf = test: Test C postemergence; type: in vivo, Abutilon theophrasti
How it was run: as §1

sedge, umbrella = test: Test B flooded paddy test; type: in vivo, Cyperus difformis; conditions: Flood, 250 g ai/ha; 0 to 100 scale where 0 is no effect and 100 is complete control
How it was run: (§3)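 2-leaf stage plants; pots flooded to 3 cm, compound added to paddy water, depth maintained. Greenhouse 13–15 d. Visual rating vs untreated controls, 0 (no effect) to 100 (complete control); dash = no result.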

morningglory = test: Test C postemergence; type: in vivo, Ipomoea coccinea
How it was run: as §1

yellow nutsedge = test: Test C postemergence; type: in vivo, Cyperus esculentus
How it was run: as §1

barnyardgrass [1] = test: Test A preemergence; type: in vivo, Echinochloa crus-galli; conditions: for Barnyardgrass plant response rating: 500 g ai/ha
How it was run: as §2

ragweed = test: Test C postemergence; type: in vivo, Ambrosia elatior
How it was run: as §1

wheat, winter = test: Test C postemergence; type: in vivo, Triticum aestivum
How it was run: as §1

rice = test: Test B flooded paddy test; type: in vivo, Oryza sativa; conditions: Flood, 250 g ai/ha, 0 to 100 scale where 0 is no effect and 100 is complete control
How it was run: as §3

galium = test: Test C postemergence; type: in vivo, Galium aparine
How it was run: as §1

barnyardgrass [2] = test: Test B flooded paddy test; type: in vivo, Echinochloa crus-galli; conditions: Flood, 250 g ai/ha, 0 to 100 scale where 0 is no effect and 100 is complete control
How it was run: as §3

lambsquarters = test: Test C postemergence; type: in vivo, Chenopodium album
How it was run: as §1

Heteranthera limosa = test: Test B flooded paddy test; type: in vivo; conditions: Flood, 250 g ai/ha, 0 to 100 scale where 0 is no effect and 100 is complete control
How it was run: as §3

[3] = 16 g ai/ha, postemergence, 0 is no effect, 100 is complete control
[4] = 31 g ai/ha, postemergence, visual rating, scale 0 to 100 (0 no effect, 100 complete control), 13 to 15 days
[5] = 125 g ai/ha, postemergence, visual rating, scale 0 to 100 (0 no effect, 100 complete control)
[6] = Postemergence, 62 g ai/ha, scale 0 to 100 (0 no effect, 100 complete control), 13 to 15 days
[7] = 500 g ai/ha, 0 to 100 scale where 0 is no effect and 100 is complete control
[8] = 0 to 100 scale where 0 is no effect and 100 is complete control

Clc1cnc(Oc2cccc(Cl)c2-n2cc(Cl)cn2)nc1 [Compound 220]
Plant response rating (0 to 100), Chickweed (chickweed; [3]): 65 | Chickweed plant response rating (chickweed; [4]): 70 | Plant response rating, Chickweed (chickweed; [5]): 80 | Plant response rating, Chickweed (chickweed; [6]): 80 | Corn plant response rating (0 to 100 scale) (corn; 125 g ai/ha): 0 | Corn plant response rating (corn; [7]): 10 | Foxtail, Giant plant response rating (0 to 100 scale) (giant foxtail; 125 g ai/ha): 100 | Foxtail, Giant plant response rating (giant foxtail; [8]): 100 | Wheat plant response rating (0 to 100 scale) (wheat; 125 g ai/ha): 0 | Wheat plant response rating (wheat; [7]): 20 | Plant response rating (0 to 100), Velvetleaf (velvetleaf; [3]): 30 | Velvetleaf plant response rating (velvetleaf; [4]): 50 | Plant response rating, Velvetleaf (velvetleaf; [5]): 60 | Plant response rating, Velvetleaf (velvetleaf; [6]): 65 | Plant response rating, Sedge, Umbrella (sedge, umbrella): 90 | Plant response rating (0 to 100), Morningglory (morningglory; [3]): 15 | Morningglory plant response rating (morningglory; [4]): 50 | Plant response rating, Morningglory (morningglory; [5]): 50 | Plant response rating, Morningglory (morningglory; [6]): 40 | Plant response rating (0 to 100), Nutsedge, Yellow (yellow nutsedge; [3]): 10 | Nutsedge, Yellow plant response rating (yellow nutsedge; [4]): 0 | Plant response rating, Nutsedge, Yellow (yellow nutsedge; [5]): 5 | Plant response rating, Nutsedge, Yellow (yellow nutsedge; [6]): 0 | Barnyardgrass plant response rating (0 to 100 scale, 0 is no effect, 100 is complete control) (barnyardgrass [1]; 125 g ai/ha): 60 | Barnyardgrass plant response rating (barnyardgrass [1]; [8]): 100 | Plant response rating (0 to 100), Ragweed (ragweed; [3]): 10 | Ragweed plant response rating (ragweed; [4]): 10 | Plant response rating, Ragweed (ragweed; [5]): 25 | Plant response rating, Ragweed (ragweed; [6]): 15 | Plant response rating (0 to 100), Wheat (wheat, winter; [3]): 0 | Wheat plant response rating (wheat, winter; [4]): 0 | Plant response rating, Wheat (wheat, winter; [5]): 0 | Plant response rating, Wheat (wheat, winter; [6]): 0 | Plant response rating, Rice (rice): 0 | Plant response rating (0 to 100), Galium (galium; [3]): 50 | Galium plant response rating (galium; [4]): 70 | Plant response rating, Galium (galium; [5]): 95 | Plant response rating, Galium (galium; [6]): 80 | Plant response rating, Barnyardgrass (barnyardgrass [2]): 0 | Plant response rating (0 to 100), Lambsquarters (lambsquarters; [3]): 15 | Lambsquarters plant response rating (lambsquarters; [4]): 50 | Plant response rating, Lambsquarters (lambsquarters; [5]): 75 | Plant response rating, Lambsquarters (lambsquarters; [6]): 55 | Plant response rating, Ducksalad (Heteranthera limosa): 100

N#Cc1cccc(Oc2ncc(Cl)cn2)c1-n1cc(SC(F)(F)F)cn1 [Compound 134, 3-[(5-chloro-2-pyrimidinyl)oxy]-2-[4-(trifluoromethylthio)-1-pyrazolyl]benzonitrile]
pest or weed control at 16 g/ha (chickweed; Stellaria media, post-emergence, 16 g ai/ha, postemergence, 0 is no effect, 100 is complete control, read-out: Plant response rating (0 to 100), Chickweed): 45% | pest or weed control at 125 g/ha (chickweed; Stellaria media, post-emergence, 125 g ai/ha, postemergence, visual rating, scale 0 to 100 (0 no effect, 100 complete control), read-out: Plant response rating, Chickweed): 80% | pest or weed control at 62 g/ha (chickweed; Stellaria media, post-emergence, Postemergence, 62 g ai/ha, scale 0 to 100 (0 no effect, 100 complete control), read-out: Plant response rating, Chickweed): 55% | Foxtail, Giant plant response rating (giant foxtail; [8]): 100 | pest or weed control at 125 g/ha (giant foxtail; Setaria faberi, pre-emergence, 240 h, 125 g ai/ha, 0 to 100 scale where 0 is no effect and 100 is complete control, read-out: Plant response rating, Foxtail, Giant): 100% | pest or weed control at 16 g/ha (velvetleaf; Abutilon theophrasti, post-emergence, 16 g ai/ha, postemergence, 0 is no effect, 100 is complete control, read-out: Plant response rating (0 to 100), Velvetleaf): 30% | pest or weed control at 125 g/ha (velvetleaf; Abutilon theophrasti, post-emergence, 125 g ai/ha, postemergence, visual rating, scale 0 to 100 (0 no effect, 100 complete control), read-out: Plant response rating, Velvetleaf): 55% | pest or weed control at 62 g/ha (velvetleaf; Abutilon theophrasti, post-emergence, Postemergence, 62 g ai/ha, scale 0 to 100 (0 no effect, 100 complete control), read-out: Plant response rating, Velvetleaf): 50% | Plant response rating, Sedge, Umbrella (sedge, umbrella): 30 | pest or weed control at 16 g/ha (morningglory; Ipomoea, post-emergence, 16 g ai/ha, postemergence, 0 is no effect, 100 is complete control, read-out: Plant response rating (0 to 100), Morningglory): 70% | pest or weed control at 125 g/ha (morningglory; Ipomoea, post-emergence, 125 g ai/ha, postemergence, visual rating, scale 0 to 100 (0 no effect, 100 complete control), read-out: Plant response rating, Morningglory): 95% | pest or weed control at 62 g/ha (morningglory; Ipomoea, post-emergence, Postemergence, 62 g ai/ha, scale 0 to 100 (0 no effect, 100 complete control), read-out: Plant response rating, Morningglory): 85% | pest or weed control at 16 g/ha (yellow nutsedge; Cyperus, post-emergence, 16 g ai/ha, postemergence, 0 is no effect, 100 is complete control, read-out: Plant response rating (0 to 100), Nutsedge, Yellow): 0% | pest or weed control at 125 g/ha (yellow nutsedge; Cyperus, post-emergence, 125 g ai/ha, postemergence, visual rating, scale 0 to 100 (0 no effect, 100 complete control), read-out: Plant response rating, Nutsedge, Yellow): 10% | pest or weed control at 62 g/ha (yellow nutsedge; Cyperus, post-emergence, Postemergence, 62 g ai/ha, scale 0 to 100 (0 no effect, 100 complete control), read-out: Plant response rating, Nutsedge, Yellow): 10% | Plant response rating, Barnyardgrass (barnyardgrass [1]; 125 g ai/ha, 0 to 100 scale where 0 is no effect and 100 is complete control): 70 | Barnyardgrass plant response rating (barnyardgrass [1]; [8]): 100 | pest or weed control at 16 g/ha (ragweed; Ambrosia artemisiifolia, post-emergence, 16 g ai/ha, postemergence, 0 is no effect, 100 is complete control, read-out: Plant response rating (0 to 100), Ragweed): 10% | pest or weed control at 125 g/ha (ragweed; Ambrosia artemisiifolia, post-emergence, 125 g ai/ha, postemergence, visual rating, scale 0 to 100 (0 no effect, 100 complete control), read-out: Plant response rating, Ragweed): 55% | pest or weed control at 62 g/ha (ragweed; Ambrosia artemisiifolia, post-emergence, Postemergence, 62 g ai/ha, scale 0 to 100 (0 no effect, 100 complete control), read-out: Plant response rating, Ragweed): 55% | plant injury at 16 g/ha (wheat, winter; Triticum aestivum, post-emergence, 16 g ai/ha, postemergence, 0 is no effect, 100 is complete control, read-out: Plant response rating (0 to 100), Wheat): 0% | plant injury at 125 g/ha (wheat, winter; Triticum aestivum, post-emergence, 125 g ai/ha, postemergence, visual rating, scale 0 to 100 (0 no effect, 100 complete control), read-out: Plant response rating, Wheat): 25% | plant injury at 62 g/ha (wheat, winter; Triticum aestivum, post-emergence, Postemergence, 62 g ai/ha, scale 0 to 100 (0 no effect, 100 complete control), read-out: Plant response rating, Wheat): 5% | plant injury at 250 g/ha (rice; Oryza sativa, read-out: Plant response rating, Rice): 0% | pest or weed control at 16 g/ha (galium; Galium, post-emergence, 16 g ai/ha, postemergence, 0 is no effect, 100 is complete control, read-out: Plant response rating (0 to 100), Galium): 65% | pest or weed control at 125 g/ha (galium; Galium, post-emergence, 125 g ai/ha, postemergence, visual rating, scale 0 to 100 (0 no effect, 100 complete control), read-out: Plant response rating, Galium): 85% | pest or weed control at 62 g/ha (galium; Galium, post-emergence, Postemergence, 62 g ai/ha, scale 0 to 100 (0 no effect, 100 complete control), read-out: Plant response rating, Galium): 85% | pest or weed control at 250 g/ha (barnyardgrass [2]; Echinochloa crus-galli, read-out: Plant response rating, Barnyardgrass): 0% | pest or weed control at 16 g/ha (lambsquarters; Chenopodium album, post-emergence, 16 g ai/ha, postemergence, 0 is no effect, 100 is complete control, read-out: Plant response rating (0 to 100), Lambsquarters): 5% | pest or weed control at 125 g/ha (lambsquarters; Chenopodium album, post-emergence, 125 g ai/ha, postemergence, visual rating, scale 0 to 100 (0 no effect, 100 complete control), read-out: Plant response rating, Lambsquarters): 65% | pest or weed control at 62 g/ha (lambsquarters; Chenopodium album, post-emergence, Postemergence, 62 g ai/ha, scale 0 to 100 (0 no effect, 100 complete control), read-out: Plant response rating, Lambsquarters): 75% | pest or weed control at 250 g/ha (Heteranthera limosa; Heteranthera limosa, read-out: Plant response rating, Ducksalad): 30%
